Data published in patent US20030228357A1, “Dry granulated formulations of azithromycin” (Pfizer Inc., priority 2002, published 2003).

Assay: Density and Carr's Compressibility Index (flowability) of dry blends and dry granulations
Assay type: physicochemical
Excerpt: Carr's Compressibility Index was used to evaluate the flowability of the four dry granulations. Carr's Compressibility Index is a simple test to evaluate flowability by comparing both the initial and final (tapped) bulk volumes and the rate of packing down. A useful empirical guide to flow is given by Carr's compressibility index: Compressibility Index(%)=[(tapped density−initial density)/tapped density]×100 […] The procedure is described in Int. J. Pharm. Tech. & Prod. Mfr., 6(3) 10-16, 1985.

[1] = 35.2 wt % azithromycin, dicalcium phosphate anhydrous diluent, Long blend method
[2] = 35.2 wt % azithromycin, dicalcium phosphate anhydrous diluent, Long blend method, slugged
[3] = 35.2 wt % azithromycin, dicalcium phosphate anhydrous diluent, Short blend method
[4] = 35.2 wt % azithromycin, dicalcium phosphate anhydrous diluent, Short blend method, slugged
[5] = Table 3A, low drug loading: 35.2 wt % azithromycin, 54.8 wt % dicalcium phosphate anhydrous, long blend
[6] = Table 3B, high drug loading: 58.2 wt % azithromycin, 31.8 wt % dicalcium phosphate anhydrous, long blend
[7] = Table 4A, low drug loading (35.2 wt % azithromycin), diluent DCP, anhyd.
[8] = Table 4A, low drug loading (35.2 wt % azithromycin), diluent DCP, dihyd.
[9] = Table 4B, high drug loading (58.2 wt % azithromycin), diluent DCP, anhyd.
[10] = Table 4B, high drug loading (58.2 wt % azithromycin), diluent DCP, dihyd.
[11] = Table 7, milled Form A lot, 58.2 wt % azithromycin, DCP anhydrous
[12] = Table 7, unmilled Form A lot, 58.2 wt % azithromycin, DCP anhydrous
[13] = Table 7A, 55.76 wt % azithromycin, lactose anhydrous, corn starch, roller compaction 850 psi, dihydrate
[14] = Table 7 Lot 1, milled, roller compaction, Roll Pressure Setting 850 psi
[15] = Table 7 Lot 2, milled, roller compaction, Roll Pressure Setting 300 psi
[16] = Table 7 Lot 3, unmilled, roller compaction, Roll Pressure Setting 500 psi
[17] = Table 7 Lot 4, unmilled, roller compaction, Roll Pressure Setting 300 psi

CC[C@H]1OC(=O)[C@H](C)[C@@H](O[C@H]2C[C@@](C)(OC)[C@@H](O)[C@H](C)O2)[C@H](C)[C@@H](O[C@@H]2O[C@H](C)C[C@H](N(C)C)[C@H]2O)[C@](C)(O)C[C@@H](C)CN(C)[C@H](C)[C@@H](O)[C@]1(C)O [Form A, azithromycin dihydrate, reference compound]
Dry Blend Carr's Index [1]: 44% | Dry Blend density As Is [1]: 0.59 g/cc | Dry Blend density Tapped [1]: 1.05 g/cc | Granulation Carr's Index [2]: 26% | Granulation Density As Is [2]: 0.88 g/cc | Granulation Density Tapped [2]: 1.19 g/cc | Dry Blend Carr's Index [3]: 43% | Dry Blend density As Is [3]: 0.59 g/cc | Dry Blend density Tapped [3]: 1.04 g/cc | Granulation Carr's Index [4]: 32% | Granulation Density As Is [4]: 0.78 g/cc | Granulation Density Tapped [4]: 1.14 g/cc | Granulation Carr's Index [5]: 26% | Granulation Density As Is [5]: 0.89 g/cc | Granulation Density Tapped [5]: 1.19 g/cc | Granulation Carr's Index [6]: 30% | Granulation Density As Is [6]: 0.67 g/cc | Granulation Density Tapped [6]: 0.96 g/cc | Dry Granulation Carr's Index [7]: 26% | Dry Granulation Density As Is [7]: 0.89 g/cc | Dry Granulation Density Tapped [7]: 1.19 g/cc | Dry Granulation Carr's Index [8]: 18% | Dry Granulation Density As Is [8]: 0.84 g/cc | Dry Granulation Density Tapped [8]: 1.04 g/cc | Dry Granulation Carr's Index [9]: 30% | Dry Granulation Density As Is [9]: 0.67 g/cc | Dry Granulation Density Tapped [9]: 0.96 g/cc | Dry Granulation Carr's Index [10]: 25% | Dry Granulation Density As Is [10]: 0.69 g/cc | Dry Granulation Density Tapped [10]: 0.92 g/cc | Dry Blend Carr's Index [11]: 47% | Dry Blend density As Is [11]: 0.49 g/cc | Dry Blend density Tapped [11]: 0.92 g/cc | Dry Blend Carr's Index [12]: 44% | Dry Blend density As Is [12]: 0.57 g/cc | Dry Blend density Tapped [12]: 1.01 g/cc | Dry Granulation Density Tapped (Table 7A, 55.76 wt % azithromycin, lactose anhydrous, corn starch, roller compaction 850 psi): 0.86 g/cc | Dry Granulation Carr's Index [13]: 24% | Dry Granulation Density As Is [13]: 0.66 g/cc | Dry Granulation Carr's Index [14]: 39% | Dry Granulation Density As Is [14]: 0.55 g/cc | Dry Granulation Density Tapped [14]: 0.91 g/cc | Dry Granulation Carr's Index [15]: 33% | Dry Granulation Density As Is [15]: 0.60 g/cc | Dry Granulation Density Tapped [15]: 0.90 g/cc | Dry Granulation Carr's Index [16]: 30% | Dry Granulation Density As Is [16]: 0.64 g/cc | Dry Granulation Density Tapped [16]: 0.92 g/cc | Dry Granulation Carr's Index [17]: 26% | Dry Granulation Density As Is [17]: 0.66 g/cc | Dry Granulation Density Tapped [17]: 0.92 g/cc
